Data reported in BindingDB's records for doi:10.1021/acs.jmedchem.1c00256 (University of Strasbourg, 2021).

Tests used:
[1] = target: Prolactin-releasing peptide receptor PRLHR (Homo sapiens) (UniProt P49683); assay: Displacement of [3H]-PrRP-20 from human PrRP receptor expressed in CHO cells by TopCount scintillation counting method
KiSS-1 receptor = KiSS-1 receptor (Homo sapiens, UniProt Q969F8); assay: Displacement of [125I]-Kp-10 from human Kiss1 receptor by TopCount scintillation counting method
KiSS-1 receptor, sequence (Q969F8 whole entry): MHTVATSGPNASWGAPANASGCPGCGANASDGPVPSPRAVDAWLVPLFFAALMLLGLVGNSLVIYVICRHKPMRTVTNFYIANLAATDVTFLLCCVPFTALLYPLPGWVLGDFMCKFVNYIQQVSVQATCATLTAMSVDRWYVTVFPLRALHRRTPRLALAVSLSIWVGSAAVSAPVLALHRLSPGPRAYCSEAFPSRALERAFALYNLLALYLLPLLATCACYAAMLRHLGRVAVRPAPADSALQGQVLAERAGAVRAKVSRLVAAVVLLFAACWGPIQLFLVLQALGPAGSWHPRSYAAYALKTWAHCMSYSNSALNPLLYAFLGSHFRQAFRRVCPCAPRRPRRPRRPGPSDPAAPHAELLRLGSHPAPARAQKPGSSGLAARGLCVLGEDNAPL

Prolactin-releasing peptide receptor PRLHR (Homo sapiens), sequence (P49683 whole entry, looked up): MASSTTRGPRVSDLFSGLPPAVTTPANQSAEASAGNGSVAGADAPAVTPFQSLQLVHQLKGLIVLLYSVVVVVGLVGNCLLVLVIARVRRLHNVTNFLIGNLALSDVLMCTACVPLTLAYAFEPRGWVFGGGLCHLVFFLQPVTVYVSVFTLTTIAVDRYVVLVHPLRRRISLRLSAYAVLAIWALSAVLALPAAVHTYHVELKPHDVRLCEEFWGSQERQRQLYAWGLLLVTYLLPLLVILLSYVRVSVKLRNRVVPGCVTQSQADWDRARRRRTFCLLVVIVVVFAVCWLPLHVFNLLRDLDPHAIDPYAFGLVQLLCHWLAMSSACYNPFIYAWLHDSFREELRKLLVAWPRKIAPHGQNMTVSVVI

Molecule | Ki [1] | Ki (KiSS-1 receptor)
N=C(N)NCCC[C@@H](NC(=O)C=C(c1ccccc1)c1ccccc1)C(=O)N[C@H](Cc1ccccc1)C(N)=O | > 50000 nM | –
CC(C)C[C@H](NC(=O)CNC(=O)[C@H](Cc1ccccc1)NC(=O)[C@H](CO)NC(=O)[C@H](CC(N)=O)NC(=O)[C@H](Cc1c[nH]c2ccccc12)NC(=O)[C@H](CC(N)=O)NC(=O)[C@@H](N)Cc1ccc(O)cc1)C(=O)N[C@@H](CCCNC(=N)N)C(=O)N[C@@H](Cc1ccccc1)C(N)=O [Kisspeptin-10] | – | 0.062 nM
H-TPDINPAWYASRGIRPVGRF-NH2 | 2.1 nM | –
